PMC5421785, “Citrullination only infrequently impacts peptide binding to HLA class II MHC” (PLoS ONE, 2017)
Like-named read-outs stand apart in the source and are kept apart here. One block for each molecule: values may come before it. Square brackets hold non-standard residues; d marks the D form. Ends that are not written are not given here. Peptide text beside a SMILES is read from it. Cit = NC(=O)NCCC[C@H](N)C(=O)O

Assays:
[1] = biological target: T1, HLA-DRB1*04:01 (Homo sapiens, UniProt P01903+P01911, A100K/A169T/F76Y/I96L/K127E/L162R/M171V/N62H/P40V/Q125Y/R42H/S133A/S149N/S66Y/V115G/V209L/W38E); test: HLA class II peptide binding, inhibition of radiolabeled peptide binding to purified MHC
T1 construct: EBV transformed homozygous cell lines were used as sources of MHC molecules; endogenous in cells; host or cells: EBV transformed homozygous cell lines

[2] = biological target: T2, HLA-DRB1*01:01 (Homo sapiens, UniProt P01903+P01911, A100R/D57E/F55L/F60I/F76Y/I96L/L162R/M171V/P40L/Q125E/R42F/V115G/Y59C); test: as above
T2 construct: EBV transformed homozygous cell lines were used as sources of MHC molecules; endogenous in cells; host or cells: EBV transformed homozygous cell lines

[3] = citrullinated 15-mer peptide (X = citrulline), purified HLA-DRB1*04:01, read-out: DRB1*04:01 binding capacity, Cit peptide (IC50 nM)
[4] = citrullinated 15-mer peptide (X = citrulline), purified HLA-DRB1*01:01, read-out: DRB1*01:01 binding capacity, Cit peptide (IC50 nM)
[5] = wild-type (unmodified Arg) 15-mer peptide, purified HLA-DRB1*04:01, read-out: DRB1*04:01 binding capacity, WT peptide (IC50 nM)
[6] = wild-type (unmodified Arg) 15-mer peptide, purified HLA-DRB1*01:01, read-out: DRB1*01:01 binding capacity, WT peptide (IC50 nM)
[7] = citrullinated 15-mer (X), purified MHC, inhibition of radiolabeled peptide binding, dash = IC50 >40,000 nM, read-out: DRB1*04:01 binding capacity, Cit peptide (IC50 nM)
[8] = citrullinated 15-mer (X), purified MHC, inhibition of radiolabeled peptide binding, dash = IC50 >40,000 nM, read-out: DRB1*01:01 binding capacity, Cit peptide (IC50 nM)

Molecule: ENGSPGPMGPRGLPG [Collagen 316 WT]
IC50 [1, 5]: > 40000 nM
IC50 [2, 6]: > 40000 nM

Molecule: CC(C)C[C@H](NC(=O)CNC(=O)[C@H](CCCNC(N)=O)NC(=O)[C@H](C)NC(=O)CNC(=O)[C@@H]1CCCN1C(=O)[C@@H](N)CC(C)C)C(=O)N[C@H](C(=O)NCC(=O)N[C@@H](CCCNC(=N)N)C(=O)N1CCC[C@H]1C(=O)NCC(=O)N[C@@H](CC(=O)O)C(=O)N[C@@H](C)C(=O)NCC(=O)O)[C@@H](C)O [LPGAXGLTGRPGDAG] (H-LPGA[Cit]GLTGRPGDAG-OH)
IC50 [1, 3]: > 40000 nM
IC50 [2, 4]: 2930 nM

Molecule: CC[C@H](C)[C@H](NC(=O)[C@H](CCC(=O)O)NC(=O)[C@@H](NC(=O)[C@H](CC(=O)O)NC(=O)[C@H](CC(C)C)NC(=O)[C@H](C)NC(=O)[C@@H](N)CCSC)[C@@H](C)CC)C(=O)N[C@@H](C)C(=O)N[C@H](C(=O)N[C@@H](Cc1ccc(O)cc1)C(=O)N[C@@H](CCCNC(N)=O)C(=O)N[C@@H](CCCCN)C(=O)N[C@@H](CC(C)C)C(=O)N[C@@H](CC(C)C)C(=O)N[C@@H](CCC(=O)O)C(=O)O)[C@@H](C)O [MALDIEIATYXKLLE] (H-MALDIEIATY[Cit]KLLE-OH)
IC50 [1, 3]: 4950 nM
IC50 [2, 4]: 64 nM

Molecule: CC(C)C[C@H](NC(=O)[C@H](C)NC(=O)[C@H](CC(=O)O)NC(=O)[C@H](CC(N)=O)NC(=O)[C@H](CC(N)=O)NC(=O)[C@H](CCCNC(N)=O)NC(=O)[C@H](CC(N)=O)NC(=O)[C@H](C)NC(=O)[C@H](C)NC(=O)[C@H](CCC(=O)O)NC(=O)[C@H](CO)NC(=O)[C@H](CC(C)C)NC(=O)[C@H](CC(=O)O)NC(=O)[C@H](C)N)C(=O)N[C@@H](CCCNC(=N)N)C(=O)O [ADLSEAANXNNDALR] (H-ADLSEAAN[Cit]NNDALR-OH)
IC50 [1, 7]: 22200 nM
IC50 [2, 8]: 7340 nM

Molecule: CC(C)C[C@H](NC(=O)CNC(=O)[C@H](CCCNC(=N)N)NC(=O)[C@H](C)NC(=O)CNC(=O)[C@@H]1CCCN1C(=O)[C@@H](N)CC(C)C)C(=O)N[C@H](C(=O)NCC(=O)N[C@@H](CCCNC(N)=O)C(=O)N1CCC[C@H]1C(=O)NCC(=O)N[C@@H](CC(=O)O)C(=O)N[C@@H](C)C(=O)NCC(=O)O)[C@@H](C)O [LPGARGLTGXPGDAG] (H-LPGARGLTG[Cit]PGDAG-OH)
IC50 [1, 3]: > 40000 nM
IC50 [2, 4]: 18 nM

Next, values leading:

IC50 [1, 3]: 3940 nM
IC50 [2, 4]: 5890 nM
Molecule: CC[C@H](C)[C@H](NC(=O)[C@H](CCC(=O)O)NC(=O)[C@H](CC(=O)O)NC(=O)[C@@H](N)CCC(N)=O)C(=O)N[C@@H](CCC(N)=O)C(=O)N[C@@H](CC(N)=O)C(=O)N[C@@H](CCSC)C(=O)N[C@@H](CCCCN)C(=O)N[C@@H](CCC(=O)O)C(=O)N[C@@H](CCC(=O)O)C(=O)N[C@@H](CCSC)C(=O)N[C@@H](C)C(=O)N[C@@H](CCCNC(N)=O)C(=O)N[C@@H](Cc1c[nH]cn1)C(=O)N[C@@H](CC(C)C)C(=O)O [QDEIQNMKEEMAXHL]

IC50 [1, 5]: 21800 nM
IC50 [2, 6]: 13700 nM
Molecule: TIGRLQDEIQNMKEE [Vimentin 361 WT]

IC50 [1, 3]: 7440 nM
IC50 [2, 4]: 1740 nM
Molecule: CC(C)[C@H](NC(=O)[C@H](CCC(N)=O)NC(=O)[C@H](CCCNC(N)=O)NC(=O)[C@H](CCCNC(=N)N)NC(=O)[C@H](Cc1ccc(O)cc1)NC(=O)[C@H](CCC(=O)O)NC(=O)[C@@H](NC(=O)[C@H](CO)NC(=O)[C@H](CCC(=O)O)NC(=O)[C@H](CCC(N)=O)NC(=O)[C@H](CCCCN)NC(=O)[C@H](C)NC(=O)[C@@H](N)CCC(N)=O)[C@@H](C)O)C(=O)N[C@@H](CCC(N)=O)C(=O)N[C@@H](CO)C(=O)O [QAKQESTEYRXQVQS] (H-QAKQESTEYR[Cit]QVQS-OH)

IC50 [1, 7]: 906 nM
IC50 [2, 8]: 37 nM
Molecule: CSCC[C@H](NC(=O)[C@H](CCCNC(=N)N)NC(=O)[C@H](CCCNC(N)=O)NC(=O)[C@H](Cc1ccc(O)cc1)NC(=O)[C@H](CO)NC(=O)[C@H](CO)NC(=O)[C@H](CO)NC(=O)[C@H](CO)NC(=O)[C@@H](N)C(C)C)C(=O)N[C@@H](Cc1ccccc1)C(=O)NCC(=O)NCC(=O)N1CCC[C@H]1C(=O)NCC(=O)N[C@H](C(=O)O)[C@@H](C)O [VSSSSYXRMFGGPGT] (H-VSSSSY[Cit]RMFGGPGT-OH)

IC50 ([1]; read-out: DRB1*04:01 binding capacity, WT peptide (IC50 nM)): 1150 nM
IC50 ([2]; read-out: DRB1*01:01 binding capacity, WT peptide (IC50 nM)): 7.2 nM
Molecule: SPGGVYATRSSAVRL [Vimentin 56 WT]

IC50 [1, 5]: 18000 nM
IC50 [2, 6]: 39900 nM
Molecule: DALKGTNESLERQMR [Vimentin 331 WT]
